The source of these data is US6022892A, “Bis-platinum complexes with polyamine ligands as antitumor agents” (Hoffman-La Roche Inc., priority 1998, dated 2000).

Experiment [1] relates to L1210/CDDP. In words: cytotoxic effect in vitro on cisplatin resistant subline L1210/CDDP. It counts as cell-based, murine. The conditions noted are these: after 72 hours from the drug exposure, resistant line. The procedure:
(§1) The compounds of formula (I) were tested for their cytotoxic effect "in vitro" on various tumor cell lines, among which murine leukemia L1210, human ovarian carcinoma A2780 and the respective cisplatin resistant sublines L1210/CDDP and A2780/CDDP.
(§2) a) IC50 (concentration of the drug expressed as ([…] which causes a 50% inhibition of the cell growth) determined after 2 hours from the drug exposure.
b), c) IC50 determined after 72 hours from the drug exposure in the non resistant and in the resistant cell lines, receptively.

Experiment [2] has as its system A2780/CDDP. In words: cytotoxic effect in vitro on cisplatin resistant subline A2780/CDDP. It is filed as cell-based, human. The conditions noted are these: after 1 hour from the drug exposure, resistant line. Here is the method:
as §1, §2
(§3) d), e) IC50 determined after 1 hour from the drug exposure in the non resistant and in the resistant cell lines, receptively.

Experiment [3] has as its system A2780. In words: cytotoxic effect in vitro on human ovarian carcinoma A2780. It is filed as cell-based. The conditions noted are these: after 1 hour from the drug exposure. Here is the method:
as §1, §2, §3

In experiment [4] the test system is L1210CDDP. In words: in vivo antitumor test, L1210/CDDP tumor cells inoculated ip in mouse. Conditions: ip 24, 120 and 216 hours after tumor inoculation. The procedure:
In addition, the compounds of the invention were tested in an "in vivo" test in which L1210 and L1210/CDDP tumor cells are inoculated intraperitoneally (ip) in a mouse and the compound is administered ip 24, 120 and 216 hours after tumor inoculation.
% T/C=[(MST treated)/(MST control)]×100

Consider `[Cl-].[Cl-].[Cl-].[NH2][Pt+]([NH2])([Cl])[NH]CCCC[NH2+]CCC[NH][Pt+]([NH2])([NH2])[Cl]` [Example 14, [trans-(PtCl(NH3)2)2-(-spermidine]Cl3], for which the L1210/CDDP IC50 72h in experiment [1] stood at 0.03 µg/mL. For the same compound, in experiment [2], the A2780/CDDP IC50 1h amounted to 0.13 µg/mL. This compound also had an A2780 IC50 1h in experiment [3] below 0.005 µg/mL.

With `N.N.[Cl][Pt][Cl]` [cisplatin, reference compound], the “T/C % (mean survival time treated/control)” value in experiment [4] (6 mg/kg) is reported as 110%.

Compound “[trans-(PtCl(NH3)2)2 (-spermine]Cl4 [Example 16]” registered an A2780 IC50 1h in experiment [3] below 0.005 µg/mL. Moreover, the “T/C % (mean survival time treated/control)” value in experiment [4] (2 mg/kg) is 172%.

In experiment [1], “[trans-(PtCl(NH3)2)2 H2 N--(CH2)6 --NH2 ](NO3)2 [reference compound]” yielded an L1210/CDDP IC50 72h of 0.1 µg/mL.
